Test results published in PMC8743659, “C1632 suppresses the migration and proliferation of non‐small‐cell lung cancer cells involving LIN28 and FGFR1 pathway” (Journal of Cellular and Molecular Medicine, 2021).

Key:
LIN28B = assay: Western blot of LIN28B after FGFR1 inhibition; type: cell-based, human; details: Ponatinib, A549 and A549R cell lines
Description: (§1) The total cell protein was extracted and denaturized at 95°C for 10 min. Samples were separated in SDS‐PAGE gel, then transferred to a PVDF membrane. Then this membrane was blocked with 5% non‐fat milk (solved in TBST) for 2.5 h at room temperature. Blots were probed with relevant primary antibodies against FGFR1 (CST), p‐FGFR1 (CST), MAPK (CST), p‐MAPK (CST), FAK (CST), p‐FAK (CST), MMP‐9 (CST), LIN28B (CST), GAPDH (CST), and β‐actin (proteintech) overnight at 4°C, respectively. Then the lanes were detected with HRP‐conjugated secondary antibodies and visualized using WESTAR SUPERNOVA kit (CYANAGEN).

FGFR1 = assay: Western blot of FGFR1 signalling in NSCLC cells; type: cell-based, human; details: Ponatinib, A549 and A549R cell lines
Description: as §1, with “Then this membrane was blocked with 5% non‐fat milk (solved in TBST) for 2.5 h at room temperature.” left out, “([…]).” for “(CYANAGEN).”

SMILES: Cc1ccc(C(=O)Nc2ccc(CN3CCN(C)CC3)c(C(F)(F)F)c2)cc1C#Cc1cnc2cccnn12 [Ponatinib, reference compound]
- expression of LIN28B (LIN28B): suppressing the expression of LIN28B
- effect on FGFR1 (FGFR1): inhibited FGFR1
